#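 Compound exposure: 48 hours, 5 concentrations, 96-well plates. At the TGI there is no net growth.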
# Assays:
# Assay in all cases: NCI tumour cell line growth inhibition, 48 h
# NCI-H23 lung = test system: NCI-H23 lung
# NCI-H460 lung = test system: NCI-H460 lung
# K-562 leukemia = test system: K-562 leukemia
# OVCAR-4 ovarian = test system: OVCAR-4 ovarian
# HCT-116 colon = test system: HCT-116 colon
# RXF-631 renal = test system: RXF-631 renal
# SK-MEL-5 melanoma = test system: SK-MEL-5 melanoma
# SK-OV-3 ovarian = test system: SK-OV-3 ovarian
# DMS 114 small cell lung = test system: DMS 114 small cell lung
# LXFL 529 NSCLC = test system: LXFL 529 NSCLC
# SW-620 colon = test system: SW-620 colon
# 786-0 renal = test system: 786-0 renal
# OVCAR-5 ovarian = test system: OVCAR-5 ovarian
# SNB-19 CNS = test system: SNB-19 CNS
# SF-295 CNS = test system: SF-295 CNS
# HOP-18 NSCLC = test system: HOP-18 NSCLC
# SNB-75 CNS = test system: SNB-75 CNS
# CCRF-CEM leukemia = test system: CCRF-CEM leukemia
# HT29 colon = test system: HT29 colon
# NCI-H226 lung = test system: NCI-H226 lung
# U251 CNS = test system: U251 CNS
# HOP-92 NSCLC = test system: HOP-92 NSCLC
# HCT-15 colon = test system: HCT-15 colon
# HCC-2998 colon = test system: HCC-2998 colon
# SF-268 CNS = test system: SF-268 CNS
# MOLT-4 leukemia = test system: MOLT-4 leukemia
# TK-10 renal = test system: TK-10 renal
# SN12C renal = test system: SN12C renal
# OVCAR-3 ovarian = test system: OVCAR-3 ovarian
# COLO 205 colon = test system: COLO 205 colon
# UACC-257 melanoma = test system: UACC-257 melanoma
# KM12 colon = test system: KM12 colon
# HL-60(TB) leukemia = test system: HL-60(TB) leukemia
# SF-539 CNS = test system: SF-539 CNS
# KM20L2 colon = test system: KM20L2 colon
# LOX IMVI melanoma = test system: LOX IMVI melanoma
# CAKI-1 renal = test system: CAKI-1 renal
# SR leukemia = test system: SR leukemia
# OVCAR-8 ovarian = test system: OVCAR-8 ovarian
# UO-31 renal = test system: UO-31 renal
# IGROV1 ovarian = test system: IGROV1 ovarian
# ACHN renal = test system: ACHN renal
# HOP-62 NSCLC = test system: HOP-62 NSCLC
# MALME-3M melanoma = test system: MALME-3M melanoma
# EKVX NSCLC = test system: EKVX NSCLC
# RPMI-8226 leukemia = test system: RPMI-8226 leukemia
# DLD-1 colon = test system: DLD-1 colon
# RXF 393 renal = test system: RXF 393 renal
# NCI-H522 lung = test system: NCI-H522 lung
# M19-MEL melanoma = test system: M19-MEL melanoma
# SK-MEL-28 melanoma = test system: SK-MEL-28 melanoma
# UACC-62 melanoma = test system: UACC-62 melanoma
# A549 NSCLC = test system: A549 NSCLC
# SK-MEL-2 melanoma = test system: SK-MEL-2 melanoma
# M14 melanoma = test system: M14 melanoma
# XF 498 CNS = test system: XF 498 CNS
# SNB-78 CNS = test system: SNB-78 CNS
# DMS 273 small cell lung = test system: DMS 273 small cell lung
smiles,measurement,setting,value
COc1cc(C(=O)Nc2cccc3ccccc23)c(Br)c(OC)c1OC,TGI,NCI-H23 lung,> 100 µM
same,TGI,NCI-H460 lung,> 100 µM
same,TGI,K-562 leukemia,> 100 µM
same,TGI,OVCAR-4 ovarian,> 100 µM
same,TGI,HCT-116 colon,> 100 µM
same,TGI,RXF-631 renal,> 100 µM
same,TGI,SK-MEL-5 melanoma,> 100 µM
same,TGI,SK-OV-3 ovarian,> 100 µM
same,TGI,DMS 114 small cell lung,> 100 µM
same,TGI,LXFL 529 NSCLC,> 100 µM
same,TGI,SW-620 colon,> 100 µM
same,TGI,786-0 renal,3.1 µM
same,TGI,OVCAR-5 ovarian,> 100 µM
same,TGI,SNB-19 CNS,> 100 µM
same,TGI,SF-295 CNS,> 100 µM
same,TGI,HOP-18 NSCLC,19.5 µM
same,TGI,SNB-75 CNS,> 100 µM
same,TGI,CCRF-CEM leukemia,> 100 µM
same,TGI,HT29 colon,> 100 µM
same,TGI,NCI-H226 lung,> 100 µM
same,TGI,U251 CNS,> 100 µM
same,TGI,HOP-92 NSCLC,> 100 µM
same,TGI,HCT-15 colon,> 100 µM
same,TGI,HCC-2998 colon,> 100 µM
same,TGI,SF-268 CNS,> 100 µM
same,TGI,MOLT-4 leukemia,> 100 µM
same,TGI,TK-10 renal,> 100 µM
same,TGI,SN12C renal,> 100 µM
same,TGI,OVCAR-3 ovarian,> 100 µM
same,TGI,COLO 205 colon,> 100 µM
same,TGI,UACC-257 melanoma,> 100 µM
same,TGI,KM12 colon,> 100 µM
same,TGI,HL-60(TB) leukemia,76.2 µM
same,TGI,SF-539 CNS,> 100 µM
same,TGI,KM20L2 colon,> 100 µM
same,TGI,LOX IMVI melanoma,> 100 µM
same,TGI,CAKI-1 renal,> 100 µM
same,TGI,SR leukemia,> 100 µM
same,TGI,OVCAR-8 ovarian,13.6 µM
same,TGI,UO-31 renal,86.1 µM
same,TGI,IGROV1 ovarian,> 100 µM
same,TGI,ACHN renal,> 100 µM
same,TGI,HOP-62 NSCLC,> 100 µM
same,TGI,MALME-3M melanoma,> 100 µM
same,TGI,EKVX NSCLC,> 100 µM
same,TGI,RPMI-8226 leukemia,> 100 µM
same,TGI,DLD-1 colon,> 100 µM
same,TGI,RXF 393 renal,> 100 µM
same,TGI,NCI-H522 lung,> 100 µM
same,TGI,M19-MEL melanoma,> 100 µM
same,TGI,SK-MEL-28 melanoma,> 100 µM
same,TGI,UACC-62 melanoma,> 100 µM
same,TGI,A549 NSCLC,> 100 µM
same,TGI,SK-MEL-2 melanoma,> 100 µM
same,TGI,M14 melanoma,> 100 µM
CC[C@H]1CC(=O)c2c(cc3c(c2O)C(=O)c2ccccc2C3=O)[C@@]1(C#N)C(=O)OC(C)(C)C,TGI,NCI-H23 lung,11.2 µM
same,TGI,NCI-H460 lung,7.54 µM
same,TGI,XF 498 CNS,7.67 µM
same,TGI,HCT-116 colon,8.15 µM
same,TGI,SK-MEL-5 melanoma,3.48 µM
same,TGI,SK-OV-3 ovarian,> 100 µM
same,TGI,DMS 114 small cell lung,7.97 µM
same,TGI,SNB-78 CNS,> 100 µM
same,TGI,LXFL 529 NSCLC,> 100 µM
same,TGI,SW-620 colon,13.4 µM
same,TGI,786-0 renal,46.4 µM
same,TGI,OVCAR-5 ovarian,46.5 µM
same,TGI,SF-295 CNS,20.9 µM
same,TGI,HOP-18 NSCLC,14.3 µM
same,TGI,SNB-75 CNS,32 µM
same,TGI,HT29 colon,10.1 µM
same,TGI,NCI-H226 lung,8.82 µM
same,TGI,U251 CNS,53.3 µM
same,TGI,HOP-92 NSCLC,> 100 µM
same,TGI,HCT-15 colon,5.07 µM
same,TGI,HCC-2998 colon,17.9 µM
same,TGI,SF-268 CNS,> 100 µM
same,TGI,MOLT-4 leukemia,8.62 µM
same,TGI,TK-10 renal,37.5 µM
same,TGI,SN12C renal,12.7 µM
same,TGI,OVCAR-3 ovarian,11 µM
same,TGI,COLO 205 colon,3.58 µM
same,TGI,UACC-257 melanoma,5.55 µM
same,TGI,KM12 colon,7.77 µM
same,TGI,SF-539 CNS,14.3 µM
same,TGI,KM20L2 colon,47.4 µM
same,TGI,LOX IMVI melanoma,36.8 µM
same,TGI,SR leukemia,> 100 µM
same,TGI,OVCAR-8 ovarian,15 µM
same,TGI,UO-31 renal,8.6 µM
same,TGI,IGROV1 ovarian,7.11 µM
same,TGI,ACHN renal,31.7 µM
same,TGI,HOP-62 NSCLC,5.82 µM
same,TGI,DMS 273 small cell lung,5.97 µM
same,TGI,MALME-3M melanoma,17.8 µM
same,TGI,EKVX NSCLC,36.2 µM
same,TGI,RPMI-8226 leukemia,> 100 µM
same,TGI,DLD-1 colon,7.08 µM
same,TGI,RXF 393 renal,23.1 µM
same,TGI,NCI-H522 lung,6.74 µM
same,TGI,M19-MEL melanoma,15.8 µM
same,TGI,SK-MEL-28 melanoma,23 µM
same,TGI,UACC-62 melanoma,50.6 µM
same,TGI,A549 NSCLC,> 100 µM
same,TGI,SK-MEL-2 melanoma,5.85 µM
same,TGI,M14 melanoma,14.5 µM
Cn1c(C2CCCc3c2c2ccccc2n3C)cc2ccccc21 (configuration not stated),TGI,NCI-H23 lung,> 318 µM
same,TGI,NCI-H460 lung,> 318 µM
same,TGI,K-562 leukemia,> 318 µM
same,TGI,HCT-116 colon,> 318 µM
same,TGI,RXF-631 renal,> 318 µM
same,TGI,SK-MEL-5 melanoma,> 318 µM
same,TGI,SK-OV-3 ovarian,> 318 µM
same,TGI,DMS 114 small cell lung,> 318 µM
same,TGI,LXFL 529 NSCLC,> 318 µM
same,TGI,SW-620 colon,> 318 µM
same,TGI,786-0 renal,> 318 µM
same,TGI,OVCAR-5 ovarian,> 318 µM
same,TGI,SNB-19 CNS,> 318 µM
same,TGI,SF-295 CNS,> 318 µM
same,TGI,HOP-18 NSCLC,> 318 µM
same,TGI,CCRF-CEM leukemia,> 318 µM
same,TGI,HT29 colon,> 318 µM
same,TGI,NCI-H226 lung,> 318 µM
same,TGI,U251 CNS,> 318 µM
same,TGI,HOP-92 NSCLC,299 µM
same,TGI,HCT-15 colon,> 318 µM
same,TGI,HCC-2998 colon,> 318 µM
same,TGI,SF-268 CNS,> 318 µM
same,TGI,MOLT-4 leukemia,> 318 µM
same,TGI,TK-10 renal,> 318 µM
same,TGI,SN12C renal,> 318 µM
same,TGI,OVCAR-3 ovarian,> 318 µM
same,TGI,COLO 205 colon,> 318 µM
same,TGI,UACC-257 melanoma,> 318 µM
same,TGI,KM12 colon,> 318 µM
same,TGI,HL-60(TB) leukemia,> 318 µM
same,TGI,SF-539 CNS,> 318 µM
same,TGI,KM20L2 colon,> 318 µM
same,TGI,LOX IMVI melanoma,> 318 µM
same,TGI,CAKI-1 renal,> 318 µM
same,TGI,SR leukemia,> 318 µM
same,TGI,OVCAR-8 ovarian,> 318 µM
same,TGI,IGROV1 ovarian,> 318 µM
same,TGI,ACHN renal,> 318 µM
same,TGI,HOP-62 NSCLC,> 318 µM
same,TGI,DMS 273 small cell lung,> 318 µM
same,TGI,MALME-3M melanoma,> 318 µM
same,TGI,EKVX NSCLC,> 318 µM
same,TGI,DLD-1 colon,> 318 µM
same,TGI,RXF 393 renal,> 318 µM
same,TGI,NCI-H522 lung,142 µM
same,TGI,M19-MEL melanoma,> 318 µM
same,TGI,SK-MEL-28 melanoma,> 318 µM
same,TGI,UACC-62 melanoma,> 318 µM
same,TGI,A549 NSCLC,> 318 µM
same,TGI,SK-MEL-2 melanoma,> 318 µM
